Read-outs that look alike come from different tables or passages of the source. Some results are limits rather than exact numbers.

Data set [1] deals with T1, human HDAC5 (Homo sapiens, UniProt Q9UQL6).
T1 construct: made in house
In words: HDAC5 dose response, substrate Abz-SRGGK(thio-TFA)FFRR-NH2. The class given is biochemical. The method, then:
(§1) Recombinant human HDAC1, HDAC2, and HDAC3/NCOR1 were purchased from ENZO Life Sciences AG (Lausen, CH). Recombinant human HDAC 4, HDAC5, HDAC7, HDAC9 and HDAC11 were produced by Barinka lab in Prague, as described before. Recombinant human HDAC8 was produced by Romier et al. (IGBMC, Univ. Strasbourg), as described in [55].
(§2) The determination of dose response curves for HDAC4, 5, 7 and 9 was performed as previously described with compound 4 as substrate (Abz-SRGGK(thio-TFA)FFRR-NH2). The substrate concentration was 50 µM and the enzyme concentration was 10 nM for HDAC4 and HDAC5, 5 nM for HDAC7 and 20 nM for HDAC9. HDAC11 inhibition assay was performed as described before. The fluorescence intensity was recorded with an Envision 2104 Multilabel Plate Reader (PerkinElmer, Waltham, MA) with an excitation wavelength of 330 ± 75 nm and an emission wavelength of 430 ± 8 nm.

In data set [2] the target is T2, human HDAC7 (Homo sapiens, UniProt Q8WUI4).
T2 construct: made in house
T2 sequence (Q8WUI4 1-952): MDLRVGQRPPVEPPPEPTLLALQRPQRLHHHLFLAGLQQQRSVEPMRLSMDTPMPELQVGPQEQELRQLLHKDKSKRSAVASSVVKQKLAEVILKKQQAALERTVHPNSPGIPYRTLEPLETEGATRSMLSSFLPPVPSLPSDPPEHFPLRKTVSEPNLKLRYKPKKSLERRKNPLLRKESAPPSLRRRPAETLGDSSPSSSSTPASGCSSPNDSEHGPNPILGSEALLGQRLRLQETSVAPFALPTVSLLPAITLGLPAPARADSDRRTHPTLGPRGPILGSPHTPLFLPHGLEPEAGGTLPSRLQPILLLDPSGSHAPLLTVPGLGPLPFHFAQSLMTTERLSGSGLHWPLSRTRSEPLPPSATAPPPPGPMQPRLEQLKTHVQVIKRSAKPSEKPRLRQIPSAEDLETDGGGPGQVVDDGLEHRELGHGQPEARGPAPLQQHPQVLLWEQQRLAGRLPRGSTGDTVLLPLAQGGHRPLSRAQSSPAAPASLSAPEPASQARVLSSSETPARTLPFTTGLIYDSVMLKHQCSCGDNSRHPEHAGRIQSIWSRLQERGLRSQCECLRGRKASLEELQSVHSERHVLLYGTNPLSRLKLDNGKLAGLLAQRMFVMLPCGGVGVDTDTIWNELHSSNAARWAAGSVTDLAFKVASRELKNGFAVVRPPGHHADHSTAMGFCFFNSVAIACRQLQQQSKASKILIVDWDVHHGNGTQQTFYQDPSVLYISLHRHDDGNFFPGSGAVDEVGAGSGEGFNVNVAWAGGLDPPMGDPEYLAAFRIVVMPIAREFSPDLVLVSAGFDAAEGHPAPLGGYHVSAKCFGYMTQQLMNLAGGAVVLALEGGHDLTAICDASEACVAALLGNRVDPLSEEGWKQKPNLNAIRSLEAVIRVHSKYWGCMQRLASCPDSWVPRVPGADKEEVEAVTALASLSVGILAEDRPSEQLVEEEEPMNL
In words: HDAC7 dose response, substrate Abz-SRGGK(thio-TFA)FFRR-NH2. The data set is classed as biochemical. As to the method:
as §1, §2

Data set [3] concerns MV4-11 cells. In words: Apoptosis in MV4-11 cells, annexin-V-FITC/PI flow cytometry. The class given is cell-based, human. The conditions noted are these: for induction of early and late apoptosis: 0.5 µM, 48 h; for IC50: Homo sapiens. The method, then:
(§3) We measured the induction of early (increased exposure of phosphatidylserine on the cell surface and therefore positive staining for annexin-V-FITC) and late apoptosis (positivity for annexin-V and accumulation of propidium iodide, PI) by flow cytometry.
(§4) All leukemic cells were kept in RPMI-1640 medium supplemented with 10% FBS and 1%penicillin/streptomycin (Sigma-Aldrich, Taufkirchen, Germany) under standard culture conditions at 37 °C and a 5% CO2 humidified atmosphere. Cells were authenticated as mentioned by us.

The nature of data set [4]: in vitro. The settings on record: human, HEK293 cells.
Description: The cells were incubated for 48 h with the HDACi at a concentration of 50 µM, and cell viability was determined by the Alamar Blue assay.
To determine the cytotoxicity of the developed compounds on the human epithelial kidney, cell line HEK293 was used. HEK293 cells (DSMZ Braunschweig, ACC305) were incubated at 37 °C in a humidified incubator with 5% CO2 in Dulbecco’s Modified Eagle Medium (DMEM) supplemented with 10% FCS and 5 mM glutamine. Cells were seeded out at 1.5 x 10^3 cells per well in a 96-well cell culture plate (TPP, Switzerland). The compounds to be tested were added immediately to the medium at 50 µM. After 24 h, Alamar Blue reagent (Invitrogen, CA) was added according to the manufacturer’s instructions and incubated again for 21 h before samples were analyzed. Detection of viable cells which convert the resazurine reagent into the highly fluorescent resorufin was performed by using a FLUOstarOPTIMA microplate reader (BMG Labtec) with the following filter set: Ex 530 nm/Em 590 nm. Measurements were performed in triplicate and data are means with standard deviation <12%.
Data set [5] addresses T3, human HDAC8 (Homo sapiens, UniProt Q9BY41).
T3 construct: made in house
T3 sequence (Q9BY41 1-377): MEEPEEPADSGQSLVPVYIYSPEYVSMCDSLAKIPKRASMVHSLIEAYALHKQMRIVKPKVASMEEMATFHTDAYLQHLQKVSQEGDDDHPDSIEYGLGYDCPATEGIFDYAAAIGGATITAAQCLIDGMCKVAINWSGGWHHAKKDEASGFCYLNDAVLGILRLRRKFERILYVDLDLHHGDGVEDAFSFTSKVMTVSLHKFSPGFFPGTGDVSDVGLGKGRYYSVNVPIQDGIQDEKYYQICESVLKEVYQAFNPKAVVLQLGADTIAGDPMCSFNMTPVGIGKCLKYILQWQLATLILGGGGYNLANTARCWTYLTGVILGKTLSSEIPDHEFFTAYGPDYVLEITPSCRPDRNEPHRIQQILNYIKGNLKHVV
In words: HDAC8 homogenous fluorescence assay with ZMAL substrate. The data set is classed as biochemical. The conditions noted are these: read-out: HDAC8 (% Inhib.). The method, then:
as §1
Fluorescence intensity was measured at an excitation wavelength of 390 nm and an emission wavelength of 460 nm in a microtiter plate reader (BMG Polarstar).

Data set [6] concerns MOLM-13 cells. In words: Apoptosis in MOLM-13 cells, annexin-V/PI flow cytometry. The data set is classed as cell-based, human. The settings on record: for IC50: Homo sapiens. As to the method: as §3, §4
Data set [7] concerns HEL cells. In words: Cytotoxicity/apoptosis in HEL cells expressing JAK2V617F, annexin V-FITC/PI flow cytometry. The data set is classed as cell-based, human. The method, then: (B) Cells were stained with annexin V-FITC/PI and analyzed via flow cytometry. […] IC50 values were determined for 19f. Results represent three independent experiments.
This erythroleukemia cell model carries a mutation in Janus kinase-2 (JAK2V617F) and HDACi are considered as therapeutic options to control the transformation of this disease into AML [53].
as §4

In data set [8] the test system is MV4-11 and MOLM-13 cells. In words: Immunoblot of acetylated histone H3 and cleaved caspase-3. The data set is classed as cell-based, human. The settings on record: MV4-11 and MOLM-13 cells, 0.25, 0.5, 1 µM, 24 h. The method, then: (C,D) The same experiments were conducted with MOLM-13 cells. (E) IC50 values were determined for 19f. (F) Immunoblot was done with the stated antibodies and lysates of MV4-11 and MOLM-13 cells that were incubated with the HDACi for 24 h. […] Graphs show representatives of three independent experiments.
In general terms: A western blot detects proteins with antibodies after separation by electrophoresis.

T1 sequence (Q9UQL6 whole entry): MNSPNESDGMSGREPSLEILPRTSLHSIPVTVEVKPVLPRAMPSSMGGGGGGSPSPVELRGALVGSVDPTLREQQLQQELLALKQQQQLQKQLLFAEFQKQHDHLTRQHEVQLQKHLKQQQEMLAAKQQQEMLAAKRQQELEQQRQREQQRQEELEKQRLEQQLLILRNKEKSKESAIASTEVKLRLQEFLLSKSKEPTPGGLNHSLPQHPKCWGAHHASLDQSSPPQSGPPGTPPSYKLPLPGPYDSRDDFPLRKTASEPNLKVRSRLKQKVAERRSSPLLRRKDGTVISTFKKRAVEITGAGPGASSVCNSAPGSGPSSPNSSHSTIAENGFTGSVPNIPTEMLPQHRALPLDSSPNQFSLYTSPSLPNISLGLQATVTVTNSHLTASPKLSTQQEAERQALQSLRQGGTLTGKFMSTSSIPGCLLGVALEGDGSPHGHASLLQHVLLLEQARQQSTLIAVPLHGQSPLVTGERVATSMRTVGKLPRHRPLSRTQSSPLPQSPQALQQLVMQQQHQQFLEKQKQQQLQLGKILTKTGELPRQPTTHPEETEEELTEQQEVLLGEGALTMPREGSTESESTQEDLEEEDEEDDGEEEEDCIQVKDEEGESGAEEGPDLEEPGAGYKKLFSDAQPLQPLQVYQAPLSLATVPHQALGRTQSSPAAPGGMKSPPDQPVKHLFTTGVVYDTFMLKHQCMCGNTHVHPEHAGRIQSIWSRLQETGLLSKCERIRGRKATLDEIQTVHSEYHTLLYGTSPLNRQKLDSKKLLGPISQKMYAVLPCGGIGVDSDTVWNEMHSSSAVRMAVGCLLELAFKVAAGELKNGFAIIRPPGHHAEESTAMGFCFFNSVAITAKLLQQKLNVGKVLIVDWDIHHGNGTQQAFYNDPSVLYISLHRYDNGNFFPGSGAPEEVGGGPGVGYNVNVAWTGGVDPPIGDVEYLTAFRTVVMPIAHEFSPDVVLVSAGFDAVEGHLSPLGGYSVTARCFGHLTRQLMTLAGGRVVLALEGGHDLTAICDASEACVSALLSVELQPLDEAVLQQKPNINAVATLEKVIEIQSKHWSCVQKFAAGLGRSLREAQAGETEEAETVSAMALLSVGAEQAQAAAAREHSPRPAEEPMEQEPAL

With `Cn1cc(CCN2CCN(c3cnc(C(=O)Nc4cc(-c5cccs5)ccc4N)cn3)CC2)c2ccccc21` [21a, N-(2-Amino-5-(thiophen-2-yl)phenyl)-5-(4-(2-(1-methyl-1H-indol-3-yl)ethyl)piperazin-1-yl)pyrazine-2-carboxamide], the IC50 in data set [1] and in data set [2] was over 20 µM throughout. For the same molecule, the “induction of early and late apoptosis” value in data set [3] (MV4-11 cells) is “slightly increased the number of MV4-11 cells in late apoptosis”. Moreover, in data set [4], the viability (usually a per cent measure of how many cells are alive, often set against a control) at 48 h, 50 µM amounted to 94.4%.

`Nc1ccccc1NC(=O)c1cnc(N2CCN(Cc3c[nH]c4ccccc34)CC2)cn1` [19f, 5-(4-((1H-indol-3-yl)methyl)piperazin-1-yl)-N-(2-aminophenyl)pyrazine-2-carboxamide]: the inhibition at 1 µM in data set [5] turned out to be 0%. Moreover, the IC50 in data set [1] is over 20 µM; in data set [2], over 20 µM; in data set [3] (MV4-11, 48 h, read-out: IC50 (apoptosis, annexin-V/PI)) it was 194 nM; in data set [3] (MV4-11 cells, 24 h, annexin-V/PI, read-out: IC50 for apoptosis induction) it was 255 nM; in data set [3] (MV4-11 cells, after 48 h, read-out: IC50 values for growth inhibition), about 300 nM; in data set [6] (MOLM-13, 48 h, read-out: IC50 (apoptosis, annexin-V/PI)) it was 318 nM. In addition, the IC50 in data set [6] (MOLM-13 cells, 24 h, annexin-V/PI, read-out: IC50 for apoptosis induction) is 397 nM; in data set [6] (MOLM-13 cells, after 48 h, read-out: IC50 values for growth inhibition), about 300 nM; in data set [7] (Homo sapiens, 0.25 µM to 5 µM, 24 h, read-out: IC50 for toxic effects on HEL cells), 925 nM. In data set [3] (MV4-11 cells), the “induction of early and late apoptosis” value is “early and late apoptosis in nearly the whole MV4-11 cell population”. Besides, the “fold more effective than MS-275 (apoptosis induction)” value in data set [3] (MV4-11 cells, versus MS-275) is on record as “at least 4 fold”. Also, the “fold higher potency than MS-275 (apoptosis induction)” value in data set [6] (MOLM-13 cells, versus MS-275) is recorded as 4 fold. For the same molecule, the “apoptosis in HEL cell cultures” value in data set [7] (0.5 µM, 48 h) worked out at 26%. Also, in data set [8], the “accumulation of acetylated histone H3 (immunoblot)” value was “triggered the expected accumulation of acetylated histone H3 dose-dependently and more potently than MS-275 did”. In addition, the viability at 48 h, 50 µM in data set [4] came to 76.1%.
